From paper PMC12669278, “VDAC1-interacting proteins: binding site mapping and their derived peptides induce apoptosis and multifaceted cellular effects” (Apoptosis, 2025)
No end group written: not given here.

Molecular target: T1, purified VDAC1 (Homo sapiens, UniProt P21796)
Test: Microscale thermophoresis (MST)
Assay type: binding
Conditions: not given
Protocol: MST analysis was performed using a NanoTemper Monolith NT.115 apparatus as described previously. Briefly, purified VDAC1 was fluorescently labeled using a NanoTemper Protein labeling kit BLUE (L001, NanoTemper Technologies, Munich, Germany). A constant concentration of the protein (66 nM) was incubated with different concentrations of the indicated peptide in MST binding buffer (10 mM tricine-HCl, 100 mM NaCl, pH = 7.4) for 30 min at 37 °C in the dark. Afterwards, 3–5 µl of the samples were loaded into a monolith glass capillary (NanoTemper) and a thermophoresis analysis was performed (LED 80%, IR laser 80%).

T1 sequence (P21796 whole entry, species assumed): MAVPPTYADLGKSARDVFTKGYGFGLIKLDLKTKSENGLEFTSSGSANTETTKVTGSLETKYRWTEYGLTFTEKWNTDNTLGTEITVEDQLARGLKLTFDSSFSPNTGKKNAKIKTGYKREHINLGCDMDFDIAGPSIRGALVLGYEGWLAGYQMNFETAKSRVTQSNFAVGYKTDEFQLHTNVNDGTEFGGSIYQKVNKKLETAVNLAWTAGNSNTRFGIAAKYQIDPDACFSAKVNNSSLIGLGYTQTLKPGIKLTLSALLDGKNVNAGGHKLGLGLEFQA

Sequence	Kd [µM]
MVVEHPEFLKAGKEPGLQIWRVEKFRQIKIWFQNRRMKWKK [2G8-Antp]	5

Same assay, conditions: fluorescently labeled VDAC1 66 nM, peptide 2.5-30 µM, 30 min at 37 °C; read-out: Kd

Sequence	Kd [µM]
NEFGYSNRVVDLMAHMASKE [2D1]	8

Molecular target: T1, purified VDAC1
Test: Glass-bound peptide array probed with purified VDAC1 and anti-VDAC1 antibodies
Assay type: binding
Parameters: key: +: low; ++: medium; +++: high
Conditions: glass-bound peptide array incubated 4 h with purified VDAC1 (64 nM); antibody against VDAC1 N-terminus; chemiluminescence
Protocol: A customized peptide array was produced by INTAVIS Peptide Services (GmbH & Co. KG, Tübingen, Germany). It comprised 768 peptide sequences derived from 19 VDAC1-interacting proteins that were arrayed on a glass slide. Each peptide was composed of 25 amino acids with an overlap of 15 amino acids with the peptides before and following it.
The interaction of purified VDAC1 with glass-bound peptide arrays was assessed by washing the slide three times, 10 min each, with TBST (150 mM NaCl, 50 mM Tris/HCl, pH 7.4, 0.1% Tween-20), followed by overnight incubation with blocking buffer (TBS, pH 7.8, containing low-fat dry milk, 2.5%, w/v) at 4 °C. Then slides were incubated with purified VDAC1 in protein-interacting buffer (20 mM HEPES, 100 mM KCl, pH,7.4, PBS) for 4 h at room temperature (RT). After washing, with TBST, slides were incubated overnight at 4 °C with anti-VDAC1 antibody against a sequence of 150–250 amino acids or against the VDAC1-N-terminus. Slides were then washed with TBST, followed by the appropriate secondary anti-HRP conjugated antibody for 2 h at RT. They were washed again with TBST and developed using enhanced chemiluminescence EZ-ECL (Biological Industries), according to the manufacturer’s instructions. The signal was captured in the dark using FUSION-FX (Vilber Lourmat) software.

Sequence	Spot intensity, detected using anti-N-terminus VDAC1
RERLLGWIQDQGGWGLPLAESLKRL [1B12, array peptide from BAX]	+++
RVVALFYFASKLVLKALCTKVPELI [1B8, array peptide from BAX]	++
RYGRELRRMSDEFVDSFKKGLPRPK [1A13, array peptide from BAD]	+
SKLVLKALCTKVPELIRTIMGWTLD [1B9, array peptide from BAX]	+
SPFRGRSRSAPPNLWAAQRYGRELR [1A11, array peptide from BAD]	+
SSWTRVFQSWWDRNLGRGSSAPSQ [1A17, array peptide from BAD]	+
TKVPELIRTIMGWTLDFLRERLLGW [1B10, array peptide from BAX]	+++
TVPTPHLDGKHVVFGQVIKGIGVAR [1I7, array peptide from cyclophilin D]	+
VDCIVRIPKEQGVLSFWRGNLANVI [1F18, array peptide from ANT3]	++
VGKSGTEREFRGLGDCLVKITKSDG [1G4, array peptide from ANT3]	+++

Results, then the sequence that gave them:

Spot intensity, detected using anti-N-terminus VDAC1	Sequence
++	QVSVLPEGGETPLFKQFFKNWRDPD [2H20, array peptide from gelsolin isoform b]
+	RAVQHREVQGFESATFLGYFKSGLK [2G18, array peptide from gelsolin isoform b]
+	RGPTAARHQDSWNGLSHEAFRLVSR [2M21, array peptide from HSP-70]
+++	SILEIQKGVFEVKSTNGDTFLGGED [2N23, array peptide from HSP-70]
++	SNTTAIAEAWARLDHKFDLMYAKRA [2B6, array peptide from tubulin alpha 1b]
+	SPPSTLTPDSRRVARPPPIGAEVPD [2D11, array peptide from Mcl-1]
++	STRIQQQLGQLTLENLQMLPESEDE [2G1]
++	SVKRVTQDPKLQMGKKLPLHLTLPQ [1N4, array peptide from CD4]
+	TAFQGMLRKLDIKNEDDVKSLSRVM [2E5, array peptide from Mcl-1]
++	TDVLLLDVTPLSLGIETLGGVFTKL [2O19, array peptide from HSP-70]
+	TEDELPYDDCVFGGQRLTL [2G6]
+	TGSGFTSLLMERLSVDYGKKSKLEF [2A4, array peptide from tubulin alpha 1b]
++	TPPPAEEEEDELYRQSLEIISRYLR [2D22, array peptide from Mcl-1]
+	TPVQSRVVQGKEPAHLMSLFGGKPM [2I12, array peptide from gelsolin isoform b]
+++	VGKVIPELNGKLTGMAFRVPTANVS [2C14, array peptide from GAPDH1]
+	VSSITASLRFDGALNVDLTEFQTNL [2A14, array peptide from tubulin alpha 1b]
+	YKGGTSREGGQTAPASTRLFQVRAN [2I15, array peptide from gelsolin isoform b]

Same assay, conditions: glass-bound peptide array incubated 4 h with purified VDAC1 (64 nM); antibody against VDAC1 amino acids 150-250; chemiluminescence

Sequence	Spot intensity, detected using anti-VDAC1 internal sequence
RERLLGWIQDQGGWGLPLAESLKRL [1B12, array peptide from BAX]	+
YQVSPLAARLLYPYLAWLAFTTTLN [1H11, array peptide from TSPO]	+

The remaining lines, values ahead:

Spot intensity, detected using anti-VDAC1 internal sequence	Sequence
+++	SILEIQKGVFEVKSTNGDTFLGGED [2N23, array peptide from HSP-70]
+	TDVLLLDVTPLSLGIETLGGVFTKL [2O19, array peptide from HSP-70]
+	TGSGFTSLLMERLSVDYGKKSKLEF [2A4, array peptide from tubulin alpha 1b]
+++	VSSITASLRFDGALNVDLTEFQTNL [2A14, array peptide from tubulin alpha 1b]
++	YKSEGTFGIHVAENPSIQLLEGNPG [1L13, array peptide from MAVS]
